According to patent publication EP0799174B1, “BIOCIDAL ALCOHOLS, THEIR PRODUCTION AND THEIR USE” (SCHÜLKE & MAYR GMBH, priority 1994, dated 1996):

Columns and labels:
Format in all cases: cell-based
[1] = system: Penicillium funiculosum ATCC 36839; test: MIC values, water-soluble (inhibition titre, dilution series in CSL)
[2] = system: Mycobacterium terrae ATCC 15755; test: Germ carrier experiment with standard cotton; set-up: key: E: individual colonies; M: several colonies; +: weak growth; ++: moderate growth; +++: heavy growth; ++++: very heavy growth; ∞: lawn growth; conditions: Rewopal MPG 40 25.0%, aromatic alcohol 2.0 %, dem. water to 100
Experimental: • Rewopal MPG 40 25.0% • aromatic alcohol 2.0 % • dem. water to 100
The bacteria are elutriated with 5 ml CSL from a 24 h-old (37°C) culture onto CSA plates measuring approx. 9 cm in diameter, the suspension being diluted with CSL if necessary. The number of CFU/ml is to be determined using surface culture. It should be > 10^9/ml.
The sterilized and dried germ carriers are introduced into the bacterial suspension and left in it for 15 minutes, during which they are turned over twice.
A number (4) of contaminated, thoroughly impregnated germ carriers, corresponding to the proposed removal times - 15, 30, 60 and 120 minutes - is placed in a small dish and 10 ml of the disinfectant solution to be tested in WSH are poured over them. Air bubbles are to be removed by repeated turning of the germ carriers.
After the corresponding action times, the germ carriers are to be removed from the disinfectant solution, and after rinsing twice in each case for 1 min in 10 ml ML solution (see Appendix) to which the deactivating substances were optionally added, the germ carriers are placed onto the surface of a Löwenstein-Jensen nutrient medium with tweezers and moved backwards and forwards 3 to 4 times using light pressure. After inoculating the nutrient medium surface the small cloth is to remain lying directly above the condensed water level of the nutrient medium.
Germ carriers pre-treated in the same way, but kept in WSH for 120 minutes instead of in disinfectant solution are to be inoculated as a control. The inoculated tubes are incubated at 37°C for 3 weeks.

[3] = system: Aspergillus niger ATCC 6275; test: MIC values, water-soluble (inhibition titre, dilution series in CSL)
[4] = system: Staphylococcus aureus ATCC 6538; test: as above
Experimental: (§1) Standard formulation: • Rewopal MPG 40 25.0 g • aromatic alcohol 10 mmol • dem.* water to 100 g • lactic acid for adjusting the pH value to 7.0 q.s.
(§2) In sterile test tubes, 5 ml each of the dilutions of the disinfectant in WSH (water of standardized hardness) are mixed with 5 ml double-concentrated casein peptone soybean flour peptone solution (CSL) or CSL and deactivating substances.
(§3) To determine the bacteriostatic action on Staphylococcus aureus and Proteus mirabilis the tubes are inoculated by adding 0.1 ml of a CSL culture diluted 1:10 with CSL and incubated for 24 h at 37°C.
(§4) To test the fungistatic action, 0.1 ml of an undiluted CSL culture of Candida albicans which has been incubated at 37°C for 72 h is used in each case. Evaluation takes place after 72 h at 37°C.
(§5) The highest dilution of the preparation in CSL or CSL and deactivating substances that still suppresses growth of the test germs after […] incubation serves as the measure of the multiplication-inhibiting action (inhibition titre).
(§6) In the case of the disinhibition tests, the culture media are to be adjusted to a pH value of 7.0 ± 0.2 according to the state of the disinfectant.
(§7) Standard formulation: • aromatic alcohol 5.0 % • Brij 58 5.0 % • 1,3-butanediol to 100 • Test germs: see above • Test method: see above

[5] = system: Candida albicans ATCC 10231; test: as above
Experimental: as §1, §2, §3, §4, §5, §6, §7

[6] = system: Proteus vulgaris NCTC 4635; test: as above
P. vulgaris = system: P. vulgaris
Description: (§8) Standard formulation: • aromatic alcohol 1 part • dimethylformamide 6 parts [table] The diameters of the inhibition zones are given in mm.

[7] = system: Staphylococcus aureus ATCC 6538; test: Plate diffusion test (agar diffusion test); conditions: aromatic alcohol 1 part, dimethylformamide 6 parts
Description: as §8

[8] = system: Candida albicans ATCC 10231; test: Plate diffusion test (agar diffusion test); conditions: aromatic alcohol 1 part, dimethylformamide 6 parts
Description: as §8

[9] = system: Pseudomonas aeruginosa ATCC 15442; test: Plate diffusion test (agar diffusion test); conditions: aromatic alcohol 1 part, dimethylformamide 6 parts
Description: as §8

[10] = system: Escherichia coli ATCC 11229; test: Plate diffusion test (agar diffusion test); conditions: aromatic alcohol 1 part, dimethylformamide 6 parts
Description: as §8

[11] = system: Staphylococcus aureus ATCC 6538; test: MIC values, water-insoluble (covered area of plates, solutions in acetone); conditions: solution in acetone, 100% means no inhibiting action
Description: (§9) [table] The size of the covered areas of the plates is given in %; 100% means no inhibiting action.

[12] = system: Candida albicans ATCC 10231; test: as above; conditions: solution in acetone, 100% means no inhibiting action
Description: as §9

[13] = system: Aspergillus niger ATCC 6275; test: as above; conditions: solution in acetone, 100% means no inhibiting action
Description: as §9

[14] = system: Escherichia coli ATCC 11229; test: as above; conditions: solution in acetone, 100% means no inhibiting action
Description: as §9

[15] = standard formulation: Rewopal MPG 40 25.0 g, aromatic alcohol 10 mmol, dem. water to 100 g, pH 7.0
[16] = standard formulation: aromatic alcohol 5.0 %, Brij 58 5.0 %, 1,3-butanediol to 100

Compound | diameters of the inhibition zones, P. vulgaris (P. vulgaris) [mm] | diameters of the inhibition zones, S. aureus [7] [mm] | diameters of the inhibition zones, C. albicans [8] [mm] | diameters of the inhibition zones, P. aeruginosa [9] [mm] | diameters of the inhibition zones, E. coli [10] [mm] | size of the covered areas of the plates, S. aureus ([11]; concentration 0.50 % by wt.) [%] | size of the covered areas of the plates, S. aureus ([11]; concentration 1.00 % by wt.) [%] | size of the covered areas of the plates, C. albicans ([12]; concentration 0.50 % by wt.) [%] | size of the covered areas of the plates, C. albicans ([12]; concentration 1.00 % by wt.) [%] | size of the covered areas of the plates, A. niger ([13]; concentration 0.50 % by wt.) [%] | size of the covered areas of the plates, A. niger ([13]; concentration 1.00 % by wt.) [%] | size of the covered areas of the plates, E. coli ([14]; concentration 0.50 % by wt.) [%] | size of the covered areas of the plates, E. coli ([14]; concentration 1.00 % by wt.) [%] | size of the covered areas of the plates, S. aureus ([11]; concentration 0.25 % by wt.) [%] | size of the covered areas of the plates, C. albicans ([12]; concentration 0.25 % by wt.) [%] | size of the covered areas of the plates, A. niger ([13]; concentration 0.25 % by wt.) [%] | size of the covered areas of the plates, E. coli ([14]; concentration 0.25 % by wt.) [%] | other results
Cc1cccc(CC(C)(C)CO)c1 [Alcohol 3, 2,2-dimethyl-3-(3-methylphenyl) propanol] |  |  |  |  |  |  |  |  |  |  |  |  |  |  |  |  |  | MIC (minimum inhibiting concentration) P. funi. [1, 15]: 156 μmol/100 ml test solution; MIC (minimum inhibiting concentration) P. funi. [1, 16]: 313 µmol/100 ml test solution; growth of M. terrae after action time 15' ([2]; 15'): +++; growth of M. terrae after action time 30' ([2]; 30'): +; growth of M. terrae after action time 60' ([2]; 60'): +; growth of M. terrae after action time 120' ([2]; 120'): E; MIC (minimum inhibiting concentration) A. niger [3, 15]: 156 μmol/100 ml test solution; MIC (minimum inhibiting concentration) A. niger [3, 16]: 625 µmol/100 ml test solution; MIC (minimum inhibiting concentration) S. aureus [4, 15]: 2,500 μmol/100 ml test solution; MIC (minimum inhibiting concentration) S. aureus [4, 16]: 625 µmol/100 ml test solution; MIC (minimum inhibiting concentration) C. albicans [5, 15]: 625 μmol/100 ml test solution; MIC (minimum inhibiting concentration) C. albicans [5, 16]: 625 µmol/100 ml test solution; MIC (minimum inhibiting concentration) P. vulgaris [6, 15]: 2,500 μmol/100 ml test solution; MIC (minimum inhibiting concentration) P. vulgaris [6, 16]: 625 µmol/100 ml test solution
C=CCC(CO)Cc1ccccc1 (centres unmarked) [Alcohol 17] | 13 | 16 | 17 | 12 | 13 | 100 | 100 | 100 | 100 | 100 | 80 | 100 | 90 |  |  |  |  | 
CCC(CO)Cc1ccccc1Cl (centres unmarked) [Alcohol 9] | 0 | 15 | 15 | 0 | 11 | 100 | 80 | 100 | 80 | 90 | 20 | 100 | 100 | 100 | 100 | 100 | 100 | 
CCC(CO)Cc1ccc(C)c(C)c1 (centres unmarked) [Alcohol 14] | 0 | 18 | 22 | 18 | 15 | 90 | 30 | 100 | 20 | 80 | 10 | 100 | 100 | 100 | 100 | 90 | 100 | size of the covered areas of the plates, S. aureus ([11]; concentration 0.125 % by wt.): 100%; size of the covered areas of the plates, C. albicans ([12]; concentration 0.125 % by wt.): 100%; size of the covered areas of the plates, A. niger ([13]; concentration 0.125 % by wt.): 100%; size of the covered areas of the plates, E. coli ([14]; concentration 0.125 % by wt.): 100%
